# Assay results as given in patent US5894021A, “Iontophoretic transdermal drug-delivery interface and skin treatment agent and treatment method using the same” (Kabushiki Kaisya Advance, priority 1994, dated 1999).
# What was measured:
# [1] = system: calcium value in the rat serum; assay: Transdermal iontophoretic administration of calcitonin in rats with benzalkonium chloride-treated or nontreated nylon porous film (Example 1), serum calcium; format: in vivo, SD male rats; conditions: 2 IU (0.4 μg) per sheet, 6 V, 30 kHz, 30% duty, 45 minutes
# Description: These drug holding members, that is, the ion exchange membrane (4), nonwoven fabric (5), and nylon porous member (6) (in this case the holding including at least contact with a drug contact member also acceptable) are coated or impregnated uniformly by an aqueous solution of 0.01% benzalkonium chloride or else immersed in an aqueous solution of the same for treatment, then stripped of water and dried. Of the thus obtained AC-220 membrane, nonwoven fabric, and nylon porous member, the skin contact surface of the nylon porous member has deposited on it a bioactive peptide by a means such as spray coating or impregnation followed by drying for retention. The portion of the nylon porous member (6) coming into contact with the live skin has the drug (11) affixed to it. At the edges of the nylon porous member (6) and under the support (10) are for example disposed an adhesive tape (8) composed of Blenderm® (made by 3M Health Care Ltd.).
# Method: Under pentobarbital anesthesia, 7 week old SD male rats had their stomach skin sheared by electric shears and shaved by a shaver, then absorbent cotton containing an aqueous solution of 70% by weight ethanol was used to lightly rub and disinfect the area. […] The serum calcium was measured by the o-cresol phthalein complex method (Calcium C Test Wako made by Wako Pure Chemical Industries, Ltd.).
# [2] = Prevention test of skin adsorption of drug: nonabsorbed calcitonin in solution on excised rat skin (Example 2), HPLC; format: in vitro ADME, male hairless rats; conditions: after one hour, 2 μg/ml calcitonin, 60 min
# Description: The stomach skin of male hairless rats of 13 weeks age were sheared by electric shears, then lightly rubbed and disinfected by absorbent cotton containing an aqueous solution of 70% ethanol. The skin was separated by scissors, then placed on a paper towel moistened with physiological saline with the epidermal side facing up. An acrylic chamber cup (18 mm diameter and 20 mm height) was immersed for 5 minutes in a silicone coating and an aqueous solution of 1% benzalkonium chloride, then was fully rinsed and washed by distilled water. The acrylic chamber cup was adhered to the skin by medicinal adhesive and dried, then filled with 2 ml of an aqueous solution of 1% benzalkonium chloride (Group 2)or distilled water as a control (Group 1) and allowed to stand for 5 minutes. The solution was removed then the cup was fully rinsed and washed by distilled water. As one example of the polypeptide drug, a solution of 2 μg/ml of calcitonin (synthetic salmon calcitonin made by Sigma Co.) in distilled water was prepared. A 2 ml amount each were added to two acrylic chamber cups treated as explained above which were then allowed to stand. Amounts of 100 μl each were sampled after 1, 2, and 6 hours and the amount of nonabsorbed calcitonin in the solution was measured by high pressure liquid chromatography.
# [3] = system: calcium value in the rat serum; assay: Transdermal iontophoretic administration of calcitonin in rats after skin cleaning (Example 3), serum calcium; format: in vivo, male SD rats; conditions: 0.04 μg per sheet, 6 V, 30 kHz, 30% duty, 45 minutes
# Description: Under pentobarbital anesthesia, 7 week old male SD rats had their stomach skin sheared by electric shears and shaved by a shaver, then absorbent cotton containing an aqueous solution of 70% by weight ethanol (Group 3) or absorbent cotton containing an aqueous solution of 70% by weight ethanol plus 0.01% benzalkonium chloride (Group 4) was used to lightly rub and disinfect the areas. Calcitonin dried and held in an amount of 0.04 μg per sheet of drug film (synthetic salmon calcitonin made by Sigma Co.) was dissolved in an aqueous solution at the time of use and used for one rat. The conditions of conductance of power in the iontophoresis were a depolarization type constant voltage high duty pulse of 6 V, 30 kHz, and 30% duty applied for 45 minutes. The blood was sampled after a predetermined time from the jugular vein and was centrifugally separated at 12,000 rpm for 5 minutes. The supernatant was used as the serum sample. The calcium in the blood was measured by the o-cresol phthalein complex method (Calcium C Test Wako made by Wako Pure Chemical Industries, Ltd.).
substance,measurement,setting,value
calcitonin,maximum reduction in the calcium value in the rat serum,[1]; nylon porous film not coated with surfactant (nontreated group),approximately 17%
same,maximum reduction in the calcium value in the rat serum,[1]; nylon porous film treated by benzalkonium chloride (treated group),28%
same,amount of calcitonin in the aqueous solution in terms of the initially prepared concentration,[2]; skin washed with 1% benzalkonium chloride (Group 2),approximately 60%
same,amount of calcitonin in the aqueous solution in terms of the initially prepared concentration,[2]; skin washed with just distilled water (Group 1),approximately 30%
same,maximum reduction in the calcium value in rat serum,[3]; skin cleaned by 70% by weight ethanol containing 0.01% benzalkonium chloride (Group 4),about 30%
same,maximum reduction in the calcium value in the rat serum,[3]; skin cleaned by 70% ethanol alone (Group 3),approximately 13%
